Measured values taken from patent US20220380319A1 (Bial - R&D Investments, S.A., priority 2019, published 2022).
≈ marks a conversion by molar mass, not a printed value.

What was measured:
[1] = Compound solubility in water
acid ceramidase = molecular target: T1, acid ceramidase (Homo sapiens, UniProt Q13510); experiment: Acid ceramidase inhibition, biochemical fluorescent assay with cell lysates overexpressing acid ceramidase, substrate Rbm14-12; conditions: substrate Rbm14-12 6.3 μM
T1 construct: Cell lysates overexpressing acid ceramidase were used as the enzyme source; expressed in transfected cells
T1 sequence (Q13510 22-395): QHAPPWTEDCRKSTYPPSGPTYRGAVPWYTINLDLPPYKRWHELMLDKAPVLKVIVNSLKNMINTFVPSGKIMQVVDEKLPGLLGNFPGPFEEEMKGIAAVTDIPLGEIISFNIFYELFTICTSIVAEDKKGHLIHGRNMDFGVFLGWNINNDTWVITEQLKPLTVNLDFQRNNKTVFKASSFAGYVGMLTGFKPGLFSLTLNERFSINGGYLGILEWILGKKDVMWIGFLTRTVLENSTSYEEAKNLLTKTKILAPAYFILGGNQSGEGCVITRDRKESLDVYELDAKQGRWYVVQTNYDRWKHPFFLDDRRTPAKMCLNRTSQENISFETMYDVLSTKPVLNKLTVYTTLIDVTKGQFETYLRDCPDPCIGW
How it was run: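 Lysate of cells overexpressing acid ceramidase (10 μg protein) preincubated with compound dose series 1 hr at RT in 25 mM NaAC, 100 mM NaCl, pH 4.5, then reacted 1 hr with 6.3 μM Rbm14-12. Stopped with NaIO4/glycine buffer pH 10.6, fluorescence ex360/em446; IC50 by four-parameter fit.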

[2] = pH 4.5, 1 hr preincubation at RT

Row | solubility [1] [µg/mL] | IC50 (acid ceramidase; [2]) [nM] | IC50 (acid ceramidase; pH 4.5) [nM] | Structure (SMILES)
1 | 13 (≈ 39.3 µM) | – | 200 to 1000 | COC1(C)CN(c2cccc3c2ncn3C(=O)NCCC(C)C)C1 [Example 177, N-iso-Pentyl-4-(3-methoxy-3-methylazetidin-1-yl)-1H-benzo[d]imidazole-1-carboxamide]
2 | 23 (≈ 69.6 µM) | – | 200 to 1000 | CC(C)CCNC(=O)n1cnc2c(N3CCOC[C@@H]3C)cccc21 [Example 169, (S)—N-iso-Pentyl-4-(3-methylmorpholino)-1H-benzo[d]imidazole-1-carboxamide]
3 | 24 (≈ 56 µM) | – | < 200 | CN1CCN(C2CN(c3cccc4c3ncn4C(=O)NCC#Cc3ccccc3)C2)CC1 [Example 332, 4-(3-(4-Methylpiperazin-1-yl)azetidin-1-yl)-N-(3-phenylprop-2-yn-1-yl)-1H-benzo[d]imidazole-1-carboxamide]
4 | 16 (≈ 44.9 µM) | – | < 200 | CC(C)CC1(CNC(=O)n2cnc3c(N4CCOCC4)cccc32)CC1 [Example 227, N-((1-iso-Butylcyclopropyl)methyl)-4-morpholino-1H-benzo[d]imidazole-1-carboxamide]
5 | 18 (≈ 44 µM) | – | < 200 | CN1CCN(c2cccc3c2ncn3C(=O)NCCCc2ccccc2)CC1CF (stereo not shown) [Example 277, 4-(3-(Fluoromethyl)-4-methylpiperazin-1-yl)-N-(3-phenylpropyl)-1H-benzo[d]imidazole-1-carboxamide]
6 | 2 (≈ 5.41 µM) | – | 200 to 1000 | CC(C)(C)CCNC(=O)n1cnc2c(N3CCN(C4CC4)CC3)cccc21 [Example 185, 4-(4-Cyclopropylpiperazin-1-yl)-N-(3,3-dimethylbutyl)-1H-benzo[d]imidazole-1-carboxamide]
7 | 8 (≈ 20.1 µM) | – | < 200 | CC(=O)N1CCN(c2cccc3c2ncn3C(=O)NCCCC(F)(F)F)CC1 [Example 225, 4-(4-Acetylpiperazin-1-yl)-N-(4,4,4-trifluorobutyl)-1H-benzo[d]imidazole-1-carboxamide]
8 | 20 (≈ 49.3 µM) | – | 200 to 1000 | CCN1CCN(c2cccc3c2ncn3C(=O)NCCC2CCC(F)(F)C2)CC1 (stereo not shown) [Example 291, N-(2-(3,3-Difluorocyclopentyl)ethyl)-4-(4-ethylpiperazin-1-yl)-1H-benzo[d]imidazole-1-carboxamide]
9 | 20 (≈ 52.4 µM) | – | < 200 | CC(C)C#CCNC(=O)n1cnc2c(N3CCN(C4COC4)CC3)cccc21 [Example 307, N-(4-Methylpent-2-yn-1-yl)-4-(4-(oxetan-3-yl)-piperazin-1-yl)-1H-benzo[d]imidazole-1-carboxamide]
10 | 28 (≈ 67.1 µM) | – | 200 to 1000 | O=C(NCCC1CCC(F)(F)C1)n1cnc2c(N3CCN4CCCC4C3)cccc21 (stereo not shown) [Example 290, N-(2-(3,3-Difluorocyclopentyl)ethyl)-4-(hexahydropyrrolo[1,2-a]pyrazin-2(1H)-yl)-1H-benzo[d]imidazole-1-carboxamide]
11 | 16 (≈ 47.1 µM) | – | < 200 | CC(C)C#CCNC(=O)n1cnc2c(N3CCN(C)CC3)cccc21 [Example 280, N-(4-Methylpent-2-ynyl)-4-(4-methylpiperazin-1-yl)-1H-benzo[d]imidazole-1-carboxamide]
12 | 18 (≈ 46 µM) | < 200 | – | CN1CCN(c2cccc3c2ncn3C(=O)NCC#Cc2ccccc2F)CC1 [Example 338, N-(3-(2-Fluorophenyl)prop-2-yn-1-yl)-4-(4-methylpiperazin-1-yl)-1H-benzo[d]imidazole-1-carboxamide]
13 | 22 (≈ 52.7 µM) | – | < 200 | CN1CCC2CCN(c3cccc4c3ncn4C(=O)NCCCc3ccccc3)CC21 (stereo not shown) [Example 271, 4-(1-Methyloctahydro-6H-pyrrolo[2,3-c]pyridin-6-yl)-N-(3-phenylpropyl)-1H-benzo[d]imidazole-1-carboxamide]
14 | 28 (≈ 77.5 µM) | – | 200 to 1000 | CC(C)CCNC(=O)n1cnc2c(N3CCN(C)C(CF)C3)cccc21 (stereo not shown) [Example 201, 4-(3-(Fluoromethyl)-4-methylpiperazin-1-yl)-N-isopentyl-1H-benzo[d]imidazole-1-carboxamide]

Further lines, the compound ahead of its results:

Row | Structure (SMILES) | solubility [1] [µg/mL] | IC50 (acid ceramidase; [2]) [nM] | IC50 (acid ceramidase; pH 4.5) [nM]
15 | O=C(NCCOc1ccccc1)n1cnc2cc(C(F)(F)F)ccc21 [Example 46a, N-(2-Phenoxyethyl)-5-(trifluoromethyl)-1H-benzo[d]imidazole-1-carboxamide] | 0.4 (≈ 1.15 µM) | < 200 | –
16 | CCCCNC(=O)n1cnc2c(C3CCN(C)CC3)cc(C(F)(F)F)cc21 [Example 57, N-Butyl-4-(1-methylpiperidin-4-yl)-6-(trifluoromethyl)-1H-benzo[d]imidazole-1-carboxamide] | 24.1 (≈ 63 µM) | < 200 | –
17 | O=C(NCCc1ccccc1)n1cnc2c(F)cccc21 [Example 64, 4-Fluoro-N-phenethyl-1H-benzo[d]imidazole-1-carboxamide] | 3.6 (≈ 12.7 µM) | < 200 | –
18 | COc1nc2c(C3CCN(C)CC3)cccc2n1C(=O)NCCc1ccccc1 [Example 33, 2-Methoxy-4-(1-methylpiperidin-4-yl)-N-phenethyl-1H-benzo[d]imidazole-1-carboxamide] | 27 (≈ 68.8 µM) | 200 to 1000 | –
19 | O=C(NCCc1ccccc1)n1c(=O)[nH]c2cccnc21 [Example 124, 2-Oxo-N-phenethyl-1H-imidazo[4,5-b]pyridine-3(2H)-carboxamide] | 4 (≈ 14.2 µM) | > 1000 | –
20 | N#Cc1cccc2c1ncn2C(=O)NCCCOc1ccccc1 [Example 131, 4-Cyano-N-(3-phenoxypropyl)-1H-benzo[d]imidazole-1-carboxamide] | 5 (≈ 15.6 µM) | < 200 | –
21 | COc1cccc2c1ncn2C(=O)NCCc1ccccc1 [Example 27, 4-Methoxy-N-phenethyl-1H-benzo[d]imidazole-1-carboxamide] | 7.8 (≈ 26.4 µM) | < 200 | –
22 | CC(C)CNC(=O)n1cnc2cc(-c3cncnc3)c(C(F)(F)F)cc21 [Example 77a, N-iso-Butyl-5-(pyrimidin-5-yl)-6-(trifluoromethyl)-1H-benzo[d]imidazole-1-carboxamide] | 14.5 (≈ 39.9 µM) | < 200 | –
23 | O=C(NCCCOc1ccccc1)n1cnc2ccccc21 [Example 43, N-(3-Phenoxypropyl)-1H-benzo[d]imidazole-1-carboxamide] | 3.5 (≈ 11.9 µM) | < 200 | –
24 | COc1nc2ccc(N3CCOCC3)cc2n1C(=O)NCCCC1(C(F)(F)F)CC1 [Example 183a, 2-Methoxy-6-morpholino-N-(3-(1-(trifluoromethyl)cyclopropyl)propyl)-1H benzo[d]imidazole-1-carboxamide] | 15 (≈ 35.2 µM) | – | < 200
25 | CN1CCC(c2cccc3c2ncn3C(=O)NCCCc2ccccc2)CC1 [Example 44, 4-(1-Methylpiperidin-4-yl)-N-(3-phenylpropyl)-1H-benzo[d]imidazole-1-carboxamide] | 23.2 (≈ 61.6 µM) | < 200 | –
26 | COc1cccc2c1ncn2C(=O)NCCC(C)C [Example 98, N-iso-Pentyl-4-methoxy-1H-benzo[d]imidazole-1-carboxamide] | 16 (≈ 61.2 µM) | < 200 | –
27 | COc1nc2c(N3CCN(C)CC3)cccc2n1C(=O)NCC#Cc1ccccc1 [Example 322, 2-Methoxy-4-(4-methylpiperazin-1-yl)-N-(3-phenylprop-2-yn-1-yl)-1H-benzo[d]imidazole-1-carboxamide] | 22 (≈ 54.5 µM) | – | 200 to 1000
28 | CC(C)CCNC(=O)n1cnc2c(N3CCOCC3)cc(C#N)cc21 [Example 179, 6-Cyano-N-iso-pentyl-4-morpholino-1H-benzo[d]imidazole-1-carboxamide] | 10 (≈ 29.3 µM) | – | < 200
29 | CN1CCN(CCOc2nc3ccccc3n2C(=O)NCCc2ccccc2)CC1 [Example 343] | 24 (≈ 58.9 µM) | 200 to 1000 | –
30 | CCCCNC(=O)n1cnc2ccc(F)cc21 [Example 69, N-Butyl-6-fluoro-1H-benzo[d]imidazole-1-carboxamide] | 20.2 (≈ 85.9 µM) | 200 to 1000 | –
31 | CN1CC2CC1CN2C1CN(c2cccc3c2ncn3C(=O)NCCOc2ccccc2)C1 (stereo not shown) [Example 356, 4-(3-(5-Methyl-2,5-diazabicyclo[2.2.1]heptan-2-yl)azetidin-1-yl)-N-(2-phenoxyethyl)-1H-benzo[d]imidazole-1-carboxamide] | 46 (≈ 103 µM) | < 200 | –
32 | CC(C)CCNC(=O)n1c(=O)n(C)c2ncc(-c3cccnc3)cc21 [Example 110, N-iso-Pentyl-3-methyl-2-oxo-6-(pyridin-3-yl)-2,3-dihydro-1H-imidazo[4,5-b]pyridine-1-carboxamide] | 18 (≈ 53 µM) | > 1000 | –
33 | CC(C)CNC(=O)n1cnc2cc(-c3cncnc3)ccc21 [Example 16a, N-iso-Butyl-5-(pyrimidin-5-yl)-1H-benzo[d]imidazole-1-carboxamide] | 4.2 (≈ 14.2 µM) | < 200 | –
34 | COc1nc2cc(-c3cncnc3)ccc2n1C(=O)NCC(C)C [Example 81b, N-iso-butyl-2-methoxy-5-(pyrimidin-5-yl)-1H-benzo[d]imidazole-1-carboxamide] | 27 (≈ 83 µM) | 200 to 1000 | –
35 | COc1nc2cc(N3CCOCC3)ccc2n1C(=O)NCCC1CC1C(F)(F)F (stereo not shown) [Example 230b, 2-methoxy-5-morpholino-N-(2-(2-(trifluoromethyl)cyclopropyl)-ethyl)-1H-benzo[d]imidazole-1-carboxamide] | 32 (≈ 77.6 µM) | – | 200 to 1000
